Read-outs that look alike come from different tables or passages of the source.
Key:
[1] = molecular target: T1, HEK-EBNA cells expressing a PG EP2 receptor subtype (Homo sapiens, UniProt P43116); test: cAMP assay, EP2; format: cell-based
T1 construct: expressed in transfected cells; host or cells: HEK-EBNA
Protocol: A 384-well drug plate was prepared to contain 6 test compounds, PGE2 and cAMP in 16 serial dilutions in triplicate, using a Biomek station. HEK-EBNA cells expressing a target PG receptor subtype (EP2 or EP4) were suspended in a stimulation buffer (HBSS, 0.1% BSA, 0.5 mM IBMX and 5 mM HEPES, pH 7.4) in a density of 10^4 cells/5 μl. The reaction was initiated by mixing 5 μL drug dilutions with 5 μl of HEK-EBNA cells in a well, carried out for 30 min at room temperature, and followed by the addition of 5 μl anti-cAMP acceptor beads in the control buffer with Tween-20 (25 mM NaCl, 0.03% Tween-20, 5 mM HEPES, pH7.4). After 30 min in the dark at room temperature, the mixtures were incubated with 15 μl biotinylated-cAMP/strepavidin donor beads in Lysis/Detection buffer (0.1% BSA, 0.3% Tween-20 and 5 mM HEPES, pH7.4) for 45 min at the room temperature. Fluorescence changes were read using a Fusion-alpha HT microplate reader.

[2] = molecular target: T2, human EP2 receptors (Homo sapiens, UniProt P43116); test: Competition radioligand binding ([3H]PGE2), EP2
T2 construct: expressed in transfected cells; host or cells: HEK 293

[3] = unit inferred, read-out: EP2 data cAMP EC50
[4] = unit inferred, read-out: EP2 data Ki
[5] = pH 6.0, unit inferred, read-out: EP2 data Ki pH 6.0

T1 sequence (P43116 whole entry): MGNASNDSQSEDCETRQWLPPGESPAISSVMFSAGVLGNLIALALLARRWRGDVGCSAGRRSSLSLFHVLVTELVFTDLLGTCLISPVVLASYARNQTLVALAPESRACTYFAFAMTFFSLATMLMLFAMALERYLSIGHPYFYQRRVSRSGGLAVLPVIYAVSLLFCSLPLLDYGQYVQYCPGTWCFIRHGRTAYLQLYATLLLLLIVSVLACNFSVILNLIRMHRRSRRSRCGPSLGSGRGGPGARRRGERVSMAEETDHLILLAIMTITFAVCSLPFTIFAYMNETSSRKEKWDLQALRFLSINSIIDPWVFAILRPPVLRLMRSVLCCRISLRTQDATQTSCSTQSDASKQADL
T2 sequence (P43116 whole entry): as above

Compound	EC50 ([1]; Table 3, third part, value in parentheses, read-out: EP2 EC50 in a cAMP mediated assay)	Ki ([2]; Table 3, third part, read-out: BINDING-Ki (nM) EP2)	EC50 [1, 3]	Ki [2, 4]	Ki [2, 5]
CCCCCC(C)c1ccc([C@@H]2[C@@H](C/C=C\CCCC(=O)O)[C@H](C#N)C[C@H]2C)cc1 (stereo partly shown)	4 nM	1250 nM	–	–	–
CCCCCC(=O)c1ccc(N2C(=O)CC[C@@H]2CCCc2ccc(C(=O)O)s2)cc1	–	–	1.6 nM	31 nM	–
CC(C)(C)c1ccc(N2C(=O)CC[C@@H]2COCc2ccc(C(=O)O)o2)cc1	–	–	28 nM	4000 nM	189 nM
CC(C)(C)c1ccc(N2C(=O)CC[C@@H]2COCc2ccc(C(=O)O)s2)cc1	–	–	51 nM	501 nM	27 nM
CC(C)(C)c1ccc(N2C(=O)CC[C@@H]2CCCCCCC(=O)O)cc1	–	–	548 nM	> 10000 nM	–
CCCCCC(O)c1ccc(N2C(=O)CC[C@@H]2COCc2ccc(C(=O)O)s2)cc1 (single isomer, unassigned) [drawing 148]	–	–	5 nM	345 nM	–
CCCCCC(O)c1ccc(N2C(=O)CC[C@@H]2CCCc2ccc(C(=O)O)s2)cc1 (single isomer, unassigned) [drawing 151]	–	–	0.15 nM	15 nM	–
CCCCCCC(O)c1ccc(N2C(=O)CC[C@@H]2COCc2ccc(C(=O)O)s2)cc1 (single isomer, unassigned) [drawing 152]	–	–	7 nM	229 nM	–
CCCCCCC(O)c1ccc(N2C(=O)CC[C@@H]2CCCc2ccc(C(=O)O)s2)cc1 (single isomer, unassigned) [drawing 155]	–	–	1.4 nM	12 nM	–
CCCCCCC(O)c1ccc(N2C(=O)CC[C@@H]2CCCc2ccc(C(=O)O)s2)cc1 (single isomer, unassigned) [drawing 156]	–	–	0.6 nM	8 nM	–
CCCCCC(O)c1ccc(N2C(=O)CC[C@@H]2COCc2ccc(C(=O)O)s2)cc1 (single isomer, unassigned) [drawing 176]	–	–	5 nM	345 nM	–
CCCCCC(O)c1ccc(N2C(=O)CC[C@@H]2COCc2ccc(C(=O)O)s2)cc1 (single isomer, unassigned) [drawing 177]	–	–	1.5 nM	116 nM	–
CCCCCC(O)c1ccc(N2C(=O)CC[C@@H]2CCCc2ccc(C(=O)O)s2)cc1 (single isomer, unassigned) [drawing 178]	–	–	0.19 nM	21 nM	–
CCCCCC(O)c1ccc(N2C(=O)CC[C@@H]2CCCc2ccc(C(=O)O)s2)cc1 (single isomer, unassigned) [drawing 179]	–	–	0.15 nM	15 nM	–
CCCCCC(O)c1ccc(N2C(=O)CC[C@@H]2CCCc2ccc(C(=O)O)s2)cc1 (single isomer, unassigned) [drawing 180]	–	–	7 nM	229 nM	–
CCCCCCC(O)c1ccc(N2C(=O)CC[C@@H]2CCCc2ccc(C(=O)O)s2)cc1 (single isomer, unassigned) [drawing 183]	–	–	1.4 nM	12 nM	–
CCCCCCC(O)c1ccc(N2C(=O)CC[C@@H]2CCCc2ccc(C(=O)O)s2)cc1 (single isomer, unassigned) [drawing 184]	–	–	0.6 nM	8 nM	–
CCCCCC(O)c1ccc(N2C(=O)CC[C@@H]2CCCc2ccc(C(=O)O)s2)cc1 (stereo partly shown) [drawing 145]	–	–	0.55 nM	23 nM	–
CCCCCC(O)c1ccc(N2C(=O)CC[C@@H]2CCCc2ccc(C(=O)O)s2)cc1 (stereo partly shown) [drawing 173]	–	–	0.55 nM	23 nM	–
